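Where inhibition never reached the appropriate level, the endpoint shown equals the highest concentration tested. Otherwise, values were interpolated linearly from a five-concentration, 48-hour dose response in 96-well plates. Abbreviation: GI50, concentration required for 50% inhibition of growth.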 Calls of active or inactive are those of the source. Cut-off read from the data, not from the text of the source: active = GI50 up to about 1.1 µM and inactive = higher.
What was measured:
Assay in all cases: growth of human tumour cells (NCI), 48 h
HL-60 = system: HL-60
IGROV-1 = system: IGROV-1
PC-3 = system: PC-3
RXF 393 = system: RXF 393
SK-MEL-5 = system: SK-MEL-5
EKVX = system: EKVX
MDA-MB-435 = system: MDA-MB-435
RPMI-8226 = system: RPMI-8226
SR = system: SR
U-251 = system: U-251
MOLT-4 = system: MOLT-4
SF-268 = system: SF-268
CAKI-1 = system: CAKI-1
HT-29 = system: HT-29
SNB-19 = system: SNB-19
NCI-H522 = system: NCI-H522
SF-539 = system: SF-539
HOP-62 = system: HOP-62
MDA-MB-231 = system: MDA-MB-231
CCRF-CEM = system: CCRF-CEM
HOP-92 = system: HOP-92
K562 = system: K562
T47D = system: T47D
TK-10 = system: TK-10
OVCAR-3 = system: OVCAR-3
HCC 2998 = system: HCC 2998
LOX IMVI = system: LOX IMVI
OVCAR-4 = system: OVCAR-4
UO-31 = system: UO-31
BT-549 = system: BT-549
SNB-75 = system: SNB-75
Malme-3M = system: Malme-3M
NCI-H460 = system: NCI-H460
786-0 = system: 786-0
KM12 = system: KM12
SK-MEL-28 = system: SK-MEL-28
NCI-H23 = system: NCI-H23
A549 = system: A549
SN12C = system: SN12C
SW-620 = system: SW-620
OVCAR-8 = system: OVCAR-8
M14 = system: M14
NCI/ADR-RES = system: NCI/ADR-RES
UACC-62 = system: UACC-62
NCI-H226 = system: NCI-H226
SF-295 = system: SF-295
MCF7 = system: MCF7
UACC-257 = system: UACC-257
HCT-116 = system: HCT-116
COLO 205 = system: COLO 205
SK-MEL-2 = system: SK-MEL-2
HCT-15 = system: HCT-15
DU-145 = system: DU-145
SK-OV-3 = system: SK-OV-3
MDA-N = system: MDA-N
Hs-578T = system: Hs-578T
OVCAR-5 = system: OVCAR-5
ACHN = system: ACHN
A498 = system: A498

Structure (SMILES): CC(=O)OCC1CCC(=C2C(=O)OC(C)(C)OC2=O)N1 (stereo not given)
- GI50 (HL-60): > 100 µM (inactive)
- GI50 (IGROV-1): > 100 µM (inactive)
- GI50 (PC-3): > 100 µM (inactive)
- GI50 (RXF 393): > 100 µM (inactive)
- GI50 (SK-MEL-5): > 100 µM (inactive)
- GI50 (EKVX): > 100 µM (inactive)
- GI50 (MDA-MB-435): > 100 µM (inactive)
- GI50 (RPMI-8226): > 100 µM (inactive)
- GI50 (SR): > 100 µM (inactive)
- GI50 (U-251): > 100 µM (inactive)
- GI50 (MOLT-4): > 100 µM (inactive)
- GI50 (SF-268): > 100 µM (inactive)
- GI50 (CAKI-1): > 100 µM (inactive)
- GI50 (HT-29): > 100 µM (inactive)
- GI50 (SNB-19): > 100 µM (inactive)
- GI50 (NCI-H522): > 100 µM (inactive)
- GI50 (SF-539): > 100 µM (inactive)
- GI50 (HOP-62): > 100 µM (inactive)
- GI50 (MDA-MB-231): > 100 µM (inactive)
- GI50 (CCRF-CEM): > 100 µM (inactive)
- GI50 (HOP-92): > 100 µM (inactive)
- GI50 (K562): > 100 µM (inactive)
- GI50 (T47D): > 100 µM (inactive)
- GI50 (TK-10): > 100 µM (inactive)
- GI50 (OVCAR-3): > 100 µM (inactive)
- GI50 (HCC 2998): > 100 µM (inactive)
- GI50 (LOX IMVI): > 100 µM (inactive)
- GI50 (OVCAR-4): > 100 µM (inactive)
- GI50 (UO-31): > 100 µM (inactive)
- GI50 (BT-549): > 100 µM (inactive)
- GI50 (SNB-75): > 100 µM (inactive)
- GI50 (Malme-3M): > 100 µM (inactive)
- GI50 (NCI-H460): > 100 µM (inactive)
- GI50 (786-0): > 100 µM (inactive)
- GI50 (KM12): > 100 µM (inactive)
- GI50 (SK-MEL-28): > 100 µM (inactive)
- GI50 (NCI-H23): > 100 µM (inactive)
- GI50 (A549): > 100 µM (inactive)
- GI50 (SN12C): > 100 µM (inactive)
- GI50 (SW-620): > 100 µM (inactive)
- GI50 (OVCAR-8): > 100 µM (inactive)
- GI50 (M14): > 100 µM (inactive)
- GI50 (NCI/ADR-RES): > 100 µM (inactive)
- GI50 (UACC-62): > 100 µM (inactive)
- GI50 (NCI-H226): > 100 µM (inactive)
- GI50 (SF-295): > 100 µM (inactive)
- GI50 (MCF7): > 100 µM (inactive)
- GI50 (UACC-257): > 100 µM (inactive)
- GI50 (HCT-116): > 100 µM (inactive)
- GI50 (COLO 205): > 100 µM (inactive)
- GI50 (SK-MEL-2): > 100 µM (inactive)
- GI50 (HCT-15): > 100 µM
- GI50 (DU-145): > 100 µM (inactive)
- GI50 (SK-OV-3): > 100 µM (inactive)
- GI50 (MDA-N): > 100 µM (inactive)
- GI50 (Hs-578T): > 100 µM (inactive)

Structure (SMILES): CN1CCC(C(O)(c2ccccc2)c2ccc(Br)cc2)CC1 (stereo not given)
- GI50 (HL-60): 20.4 µM (inactive)
- GI50 (IGROV-1): 25.9 µM (inactive)
- GI50 (PC-3): 22.2 µM (inactive)
- GI50 (RXF 393): 18.3 µM (inactive)
- GI50 (SK-MEL-5): 14.8 µM (inactive)
- GI50 (EKVX): 28.8 µM (inactive)
- GI50 (MDA-MB-435): 15.5 µM (inactive)
- GI50 (RPMI-8226): 17.3 µM (inactive)
- GI50 (SR): 17.5 µM (inactive)
- GI50 (U-251): 17.7 µM (inactive)
- GI50 (MOLT-4): 23.1 µM (inactive)
- GI50 (SF-268): 31.5 µM (inactive)
- GI50 (CAKI-1): 14 µM (inactive)
- GI50 (HT-29): 20 µM (inactive)
- GI50 (SNB-19): 45.2 µM (inactive)
- GI50 (NCI-H522): 15.5 µM (inactive)
- GI50 (SF-539): 17.6 µM (inactive)
- GI50 (HOP-62): 24.8 µM (inactive)
- GI50 (MDA-MB-231): 14.7 µM (inactive)
- GI50 (CCRF-CEM): 30.5 µM (inactive)
- GI50 (HOP-92): 8.45 µM (inactive)
- GI50 (K562): 16.7 µM (inactive)
- GI50 (T47D): 23 µM (inactive)
- GI50 (TK-10): 25.9 µM (inactive)
- GI50 (OVCAR-3): 39.4 µM (inactive)
- GI50 (HCC 2998): 12.6 µM (inactive)
- GI50 (LOX IMVI): 15.8 µM (inactive)
- GI50 (OVCAR-4): 22.7 µM (inactive)
- GI50 (UO-31): 12.5 µM (inactive)
- GI50 (BT-549): > 100 µM (inactive)
- GI50 (SNB-75): 16.6 µM (inactive)
- GI50 (Malme-3M): 14.5 µM (inactive)
- GI50 (NCI-H460): 23.4 µM (inactive)
- GI50 (786-0): 14.4 µM (inactive)
- GI50 (KM12): 18.6 µM (inactive)
- GI50 (SK-MEL-28): 16.7 µM (inactive)
- GI50 (NCI-H23): 46.9 µM (inactive)
- GI50 (A549): 26.4 µM (inactive)
- GI50 (SN12C): 16.9 µM (inactive)
- GI50 (SW-620): 21.4 µM (inactive)
- GI50 (OVCAR-8): 50.2 µM (inactive)
- GI50 (M14): 15.3 µM (inactive)
- GI50 (NCI/ADR-RES): 34.9 µM (inactive)
- GI50 (UACC-62): 15.7 µM (inactive)
- GI50 (NCI-H226): 21.8 µM (inactive)
- GI50 (SF-295): 17.9 µM (inactive)
- GI50 (MCF7): 22.6 µM (inactive)
- GI50 (UACC-257): 15.4 µM (inactive)
- GI50 (HCT-116): 18.8 µM (inactive)
- GI50 (COLO 205): 15.3 µM (inactive)
- GI50 (SK-MEL-2): 16.2 µM (inactive)
- GI50 (OVCAR-5): 21.2 µM (inactive)
- GI50 (HCT-15): 35.6 µM
- GI50 (ACHN): 31.2 µM (inactive)
- GI50 (DU-145): 81.5 µM (inactive)
- GI50 (SK-OV-3): 32.7 µM (inactive)
- GI50 (MDA-N): 15 µM (inactive)
- GI50 (Hs-578T): 23.8 µM (inactive)

Structure (SMILES): Nc1nc(O)c2ncn(C3C=CC(CO)O3)c2n1 (stereo not given)
- GI50 (PC-3): > 100 µM (inactive)
- GI50 (RXF 393): > 100 µM (inactive)
- GI50 (SK-MEL-5): > 100 µM (inactive)
- GI50 (MDA-MB-435): > 100 µM (inactive)
- GI50 (RPMI-8226): > 100 µM (inactive)
- GI50 (SR): > 100 µM (inactive)
- GI50 (U-251): > 100 µM (inactive)
- GI50 (MOLT-4): > 100 µM (inactive)
- GI50 (CAKI-1): > 100 µM (inactive)
- GI50 (HT-29): > 100 µM (inactive)
- GI50 (SNB-19): > 100 µM (inactive)
- GI50 (A498): > 100 µM (inactive)
- GI50 (HOP-62): > 100 µM (inactive)
- GI50 (MDA-MB-231): > 100 µM (inactive)
- GI50 (CCRF-CEM): 11.1 µM (inactive)
- GI50 (HOP-92): > 100 µM (inactive)
- GI50 (T47D): > 100 µM (inactive)
- GI50 (TK-10): > 100 µM (inactive)
- GI50 (OVCAR-3): > 100 µM (inactive)
- GI50 (LOX IMVI): > 100 µM (inactive)
- GI50 (OVCAR-4): > 100 µM (inactive)
- GI50 (UO-31): > 100 µM (inactive)
- GI50 (BT-549): > 100 µM (inactive)
- GI50 (SNB-75): > 100 µM (inactive)
- GI50 (Malme-3M): > 100 µM (inactive)
- GI50 (NCI-H460): > 100 µM (inactive)
- GI50 (KM12): > 100 µM (inactive)
- GI50 (SK-MEL-28): > 100 µM (inactive)
- GI50 (NCI-H23): > 100 µM (inactive)
- GI50 (SN12C): > 100 µM (inactive)
- GI50 (SW-620): > 100 µM (inactive)
- GI50 (OVCAR-8): > 100 µM (inactive)
- GI50 (M14): > 100 µM (inactive)
- GI50 (NCI/ADR-RES): > 100 µM (inactive)
- GI50 (NCI-H226): > 100 µM (inactive)
- GI50 (SF-295): > 100 µM (inactive)
- GI50 (MCF7): 75.2 µM (inactive)
- GI50 (UACC-257): > 100 µM (inactive)
- GI50 (HCT-116): > 100 µM (inactive)
- GI50 (COLO 205): > 100 µM (inactive)
- GI50 (SK-MEL-2): > 100 µM (inactive)
- GI50 (OVCAR-5): > 100 µM (inactive)
- GI50 (HCT-15): > 100 µM
- GI50 (DU-145): > 100 µM (inactive)
- GI50 (MDA-N): > 100 µM (inactive)
- GI50 (Hs-578T): > 100 µM (inactive)

— ChEMBL document CHEMBL1201862, “PubChem BioAssay data set” (2004)
